Laboratory results taken from US20080318227A1, “Intermediates and enzymes of the non-mevalonate isoprenoid pathway” (priority 2001, published 2008).

Tests used:
[1] = tested on: γδ T-cells; test: γδ T cell stimulation assay (PBMCs, FACS Vδ2 TCR/CD3 double staining); assay type: cell-based, human; conditions: for γδ T cell stimulation compared to IPP: at a concentration 200-fold lower than the concentration of the IPP sample; for % γδ T-cells: seven days
Description: PBMCs from healthy donors (donor A and donor B) are isolated from heparinized peripheral blood by density centrifugation over Ficoll-Hypaque (Amersham Pharmacia Biotech, Freiburg, Germany). […] Amounts of recombinant human IL-2 (kindly provided by Eurocetus, Amsterdam, The Netherlands) and substrates are varied from 1 to 10 U and 10 to 0.1 μM, respectively. 20 μM IPP (Echelon, Research Laboratories Inc., Salt Lake City, USA) serves as a positive control whereas medium alone serves as negative control. Incubation is done for seven days at 37° C. in the presence of 7% CO2. The harvested cells are double-stained with fluorescein isothiocyanate (FITC)-conjugated mouse anti-human monoclonal antibody Vδ2 TCR and phycoerythrin (PE)-conjugated monoclonal CD3 antibody. The cells are analyzed using a FACScan supported with Cellquest (Becton Dickinson, Heidelberg, Germany).
The substrates (E)-1-hydroxy-3-methyl-but-2-enyl 4-diphosphate (HMBPP) and 3-formyl-but-2-enyl 1-diphosphate (Aldehyde) were prepared synthetically as described above.

[2] = molecular target: T1, IspG (GcpE) (Escherichia coli, UniProt P62620); test: Screening of IspG (GcpE) enzyme activity, crude cell extract of XL1-pACYClytBgcpE, radio-HPLC; assay type: biochemical; conditions: after 10 minutes of incubation at 37° C., NADH, CoCl2, pamidronate
T1 construct: 100 μl crude cell extract of XL1-pACYClytBgcpE; made in house; host or cells: E. coli XL1-Blue harbouring pACYClytBgcpE (crude cell extract)
Description: 0.2 g cells of XL1-pACYClytBgcpE are suspended in 1 ml 50 mM Tris hydrochloride, pH 7.4 and 2 mM DTT, cooled on ice and sonified 3×7 sec with a Branson Sonifier 250 (Branson SONIC Power Company) set to 80% duty cycle output, control value of 4 output. The suspension is centrifuged at 14000 rpm for 15 minutes. The supernatant is used as crude cell extract in assays described as follows.
The assay mixture contains 100 mM Tris hydrochloride, pH 7.4, 1.2 mM dithiothreitol, 10 mM NaF, 1 mM CoCl2, 2 mM NADH, 20 mM (18 μCi mol^−1) [2-^14C[…]2C-methyl-erythritol 2,4-cyclodiphophate, 0.5 mM pamidronate and 100 μl crude cell extract of XL1-pACYClytBgcpE in a total volume of 150 μl. The mixture is incubated for 10 to 45 min at 37° C. and cooled on ice. 10 μl of 30% (g/v) trichloroacetic acid are added and the mixture is neutralized with 20 μl of 1 M NaOH.
The mixture is centrifuged at 14.000 rpm for 10 minutes. Aliquotes of 130 μl of the supernatant are analyzed by reversed-phase ion-pair HPLC using a column of Multospher 120 RP 18-AQ-5 (4.6×250 mm, CS-Chromatographie Service GmbH, Langerwehe, Germany). […] The effluent is monitored by a continuous-flow radio detector (Beta-RAM, Biostep GmbH, Jahnsdorf, Germany). […]

[3] = tested on: Capsicum annuum chromoplasts; test: Incorporation into the lipid soluble fraction of chromoplasts; assay type: biochemical; conditions: [2-14C] label, 8.8 nmol, 30° C. overnight
Description: Chromoplasts are isolated by a slight modification of a method described by Camara (Camara, 1985; Camara, 1993). Pericarp of red pepper (650 g) is homogenized at 4° C. in 600 ml of 50 mM Hepes, pH 8.0, containing 1 mM DTE, 1 mM EDTA and 0.4 M sucrose (buffer A). The suspension is filtered through four layers of nylon cloth (50 μm) and centrifuged (10 min, 4,500 rpm, GSA rotor) to obtain a pellet of crude chromoplasts which is homogenized in 200 ml of buffer A. The suspension is centrifuged (10 min, 4,500 rpm, GSA rotor). The pellet is homogenized and resuspended in 3 ml of 50 mM Hepes, pH 7.6, containing 1 mM DTE. The suspension is filtered through one layer of nylon cloth (50 μm).
Reaction mixtures contain 100 mM Hepes, pH 7.6, 2 mM MnCl2, 10 mM MgCl2, 5 mM NaF, 2 mM NADP^+, 1 mM NADPH, 6 mM ATP, 20 μM FAD and 2 mg of chromoplasts. 8.8 nmol of [2-^14C]2C-methyl-D-erythritol 2,4-cyclodiphosphate, [2-^14C]1-hydroxy-2-methyl-2-(E)-butenyl diphosphate or [2-^14C]isopentenyl diphosphate (specific […] 15.8 μCi/μmol) are added and the mixtures are incubated at 30° C. overnight. The reaction is terminated by methylene chloride extraction. The organic phase is concentrated under a stream of nitrogen. […] The chromatograms are monitored with a phosphor imager (Storm 860, Molecular dynamics, Sunnyvale, Calif., USA). […]

[4] = molecular target: T2, IspH (LytB) (Escherichia coli, UniProt P62623); test: Screening of IspH (LytB) activity, crude cell extract, radio-HPLC; assay type: biochemical
T2 construct: 20 μl of crude cell extract of M15-pMALlytB cells; made in house; host or cells: E. coli M15 harbouring pMALlytB (crude cell extract)

[5] = substrate 0.1 μM, IL-2 1 U, Donor A
[6] = substrate 0.1 μM, IL-2 1 U, Donor B
[7] = substrate 0.1 μM, IL-2 5 U, Donor A
[8] = substrate 0.1 μM, IL-2 5 U, Donor B
[9] = substrate 0.1 μM, IL-2 10 U, Donor A
[10] = substrate 0.1 μM, IL-2 10 U, Donor B
[11] = substrate 1 μM, IL-2 1 U, Donor A
[12] = substrate 1 μM, IL-2 1 U, Donor B
[13] = substrate 1 μM, IL-2 5 U, Donor A
[14] = substrate 1 μM, IL-2 5 U, Donor B
[15] = substrate 1 μM, IL-2 10 U, Donor A
[16] = substrate 1 μM, IL-2 10 U, Donor B
[17] = substrate 10 μM, IL-2 1 U, Donor A
[18] = substrate 10 μM, IL-2 1 U, Donor B
[19] = substrate 10 μM, IL-2 5 U, Donor A
[20] = substrate 10 μM, IL-2 5 U, Donor B
[21] = substrate 10 μM, IL-2 10 U, Donor A
[22] = substrate 10 μM, IL-2 10 U, Donor B

T2 sequence (P62623 whole entry): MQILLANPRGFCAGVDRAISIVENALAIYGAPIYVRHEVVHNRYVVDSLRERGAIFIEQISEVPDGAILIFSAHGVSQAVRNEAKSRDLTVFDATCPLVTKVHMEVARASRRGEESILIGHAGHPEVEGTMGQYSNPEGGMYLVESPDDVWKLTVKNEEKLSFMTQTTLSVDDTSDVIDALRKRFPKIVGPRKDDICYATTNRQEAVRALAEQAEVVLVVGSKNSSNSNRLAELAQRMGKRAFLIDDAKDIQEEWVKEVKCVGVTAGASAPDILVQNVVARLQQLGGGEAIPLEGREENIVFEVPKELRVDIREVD
T1 sequence (P62620 whole entry): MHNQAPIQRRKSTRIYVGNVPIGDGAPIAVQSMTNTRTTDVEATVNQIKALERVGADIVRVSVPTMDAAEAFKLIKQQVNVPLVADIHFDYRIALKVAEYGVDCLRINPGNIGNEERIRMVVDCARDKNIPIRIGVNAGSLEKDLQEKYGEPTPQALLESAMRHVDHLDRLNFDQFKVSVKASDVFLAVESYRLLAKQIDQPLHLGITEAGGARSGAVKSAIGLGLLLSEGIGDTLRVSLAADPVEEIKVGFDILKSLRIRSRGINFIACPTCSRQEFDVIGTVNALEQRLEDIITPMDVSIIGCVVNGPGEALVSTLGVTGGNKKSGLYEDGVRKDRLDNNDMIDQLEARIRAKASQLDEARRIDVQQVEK

Compound: (E)-3-formyl-but-2-enyl 1-diphosphate [Aldehyde]
- γδ T cell stimulation compared to IPP [1]: at least double stimulation compared to IPP
- % γδ T-cells [1, 5]: 10%
- % γδ T-cells [1, 6]: 13.54%
- % γδ T-cells [1, 7]: 19.77%
- % γδ T-cells [1, 8]: 18.45%
- % γδ T-cells [1, 9]: 21.93%
- % γδ T-cells [1, 10]: 25.82%
- % γδ T-cells [1, 11]: 15.91%
- % γδ T-cells [1, 12]: 21.18%
- % γδ T-cells [1, 13]: 40.13%
- % γδ T-cells [1, 14]: 30.76%
- % γδ T-cells [1, 15]: 48.28%
- % γδ T-cells [1, 16]: 36.69%
- % γδ T-cells [1, 17]: 12.19%
- % γδ T-cells [1, 18]: 30.69%
- % γδ T-cells [1, 19]: 34.69%
- % γδ T-cells [1, 20]: 30.33%
- % γδ T-cells [1, 21]: 38.99%
- % γδ T-cells [1, 22]: 38.85%

Compound: C[C@@]1(CO)OP(=O)(O)OP(=O)(O)OC[C@H]1O [2C-methyl-erythritol 2,4-cyclodiphophate, 2C-methyl-D-erythritol 2,4-cyclodiphosphate]
- substrate converted into 1-hydroxy-2-methyl-2-(E)-butenyl-4-diphosphate and DMAPP/IPP [2]: about 13%

Compound: C/C(=C\COP(=O)(O)OP(=O)(O)O)CO [HMBPP, (E)-1-hydroxy-3-methyl-but-2-enyl 4-diphosphate]
- γδ T cell stimulation compared to IPP [1]: at least double stimulation compared to IPP
- % γδ T-cells [1, 5]: 11.78%
- % γδ T-cells [1, 6]: 32.21%
- % γδ T-cells [1, 7]: 22.92%
- % γδ T-cells [1, 8]: 44.69%
- % γδ T-cells [1, 9]: 34.69%
- % γδ T-cells [1, 10]: 36.33%
- % γδ T-cells [1, 11]: 5.57%
- % γδ T-cells [1, 12]: 35.34%
- % γδ T-cells [1, 13]: 14.4%
- % γδ T-cells [1, 14]: 54.12%
- % γδ T-cells [1, 15]: 19.85%
- % γδ T-cells [1, 16]: 55.90%
- % γδ T-cells [1, 17]: 3.3%
- % γδ T-cells [1, 18]: 31.42%
- % γδ T-cells [1, 19]: 17.38%
- % γδ T-cells [1, 20]: 63.48%
- % γδ T-cells [1, 21]: 24.94%
- % γδ T-cells [1, 22]: 63.34%
- radioactivity diverted into geranylgeraniol, carotene, phytoene and phytofluene fractions [3]: efficiently diverted
- HPLC peak of substrate; conversion into DMAPP and IPP ([4]; crude cell extract of E. coli M15-pMALlytB cells, 30 min at 37° C., NADH, FAD, pamidronate): completely diminished
- conversion into DMAPP and IPP ([4]; crude cell extract of E. coli wild-type as protein source): No conversion

Compound: C=C(C)CCO[P@@](=O)(O)OP(=O)(O)O [IPP, isopentenyl diphosphate, reference compound]
- % γδ T-cells [1, 5]: 1.3%
- % γδ T-cells [1, 6]: 2.15%
- % γδ T-cells [1, 7]: 1.3%
- % γδ T-cells [1, 8]: 2.26%
- % γδ T-cells [1, 9]: 1.01%
- % γδ T-cells [1, 10]: 2.54%
- % γδ T-cells [1, 11]: 1.56%
- % γδ T-cells [1, 12]: 2.22%
- % γδ T-cells [1, 13]: 1.59%
- % γδ T-cells [1, 14]: 2.67%
- % γδ T-cells [1, 15]: 1.71%
- % γδ T-cells [1, 16]: 2.19%
- % γδ T-cells ([1]; substrate 20 μM, IL-2 1 U, Donor A): 8.19%
- % γδ T-cells ([1]; substrate 20 μM, IL-2 1 U, Donor B): 6.24%
- % γδ T-cells ([1]; substrate 20 μM, IL-2 5 U, Donor A): 14.42%
- % γδ T-cells ([1]; substrate 20 μM, IL-2 5 U, Donor B): 9.32%
- % γδ T-cells ([1]; substrate 20 μM, IL-2 10 U, Donor A): 16.6%
- % γδ T-cells ([1]; substrate 20 μM, IL-2 10 U, Donor B): 11.86%
